Laboratory results published in patent publication US11390622B2, “Pyrimido-isoquinolin-quinone derivative compounds, and pharmaceutically acceptable salts, isomers and tautomers thereof; pharmaceutical composition; preparation method; and use thereof in the treatment of diseases caused by bacteria and multidrug-resistant bacteria” (Universidad de Chile, priority 2015, dated 2022).
In brackets after ≈: the same amount, converted by molar mass. Like-named read-outs stand apart in the source and are kept apart here.

Columns and labels:
[1] = tested on: Enterococcus faecalis ATCC 29212; assay: CIM antibacterial activity screening (broth microdilution); type: cell-based
Experimental: (§1) These compounds were tested for their in vitro activity (Screening Antibacterial Activity CIM (μg/mL)) and the results are shown in Table II.
(§2) Bacteria used: A panel of prototype strains was used to screen for antibacterial activity in the compounds: • Methicillin-resistant Staphylococcus aureus ATCC© 43300. • Methicillin-sensitive Staphylococcus aureus ATCC© 29213. • Enterococcus faecalis ATCC© 29212. • Escherichia coli ATCC© 25922. • Pseudomonas aeruginosa ATCC© 27853.
(§3) The strains were planted from the ceparium (where they were preserved in 50% v/v glycerol and Brain Heart Infusion culture broth, at −20° C.) in Mueller-Hinton agar (Oxoid, England).
(§4) The concentrations to be tested ranged from 32 to 0.0625 μg/mL. The wells in columns 11 and 12 were used for positive growth control and sterility control respectively.
(§5) Once the plate was prepared, 100 uL of the bacterial suspension to be tested were added, previously adjusted to 0.5 Mc Farland, in each of the wells, excluding the wells in column 12. Finally, the plates were covered and incubated at 36° C. for 18 to 24 hours. Then, the plates were observed using contrast light to determine the concentration at which bacterial growth is inhibited (indicated by the disappearance of turbidity).
(§6) All trials were conducted three times, and results were considered valid if the internal controls of each plate (growth and sterility controls) were adequate. MIC antibiotic control (ciprofloxacin, gentamicin and vancomycin) was assessed and contrasted with the permitted quality control ranges given by CLSI. If the MIC detected in the trial was within the permitted ranges, the trial was accepted as valid.

[2] = tested on: Eschericha coli ATCC 25922; assay: as above; type: cell-based; settings: Escherichia coli
Experimental: as §1, §2, §3, §4, §5, §6

[3] = tested on: Methicillin resistant Staphylococcus aureus ATCC 43300; assay: as above; type: cell-based
Experimental: as §1, §2, §3, §4, §5, §6

[4] = tested on: Methicillin sensitive Staphylococcus aureus ATCC 29213; assay: as above; type: cell-based
Experimental: as §1, §2, §3, §4, §5, §6

[5] = tested on: Pseudomona aeruginosa ATCC 27853; assay: as above; type: cell-based; settings: Pseudomonas aeruginosa
Experimental: as §1, §2, §3, §4, §5, §6

[6] = ATCC29212, Enterococcus faecalis ATCC 29212, read-out: CIM
[7] = ATCC25922, Eschericha coli ATCC 25922, read-out: CIM
[8] = ATCC43300, Methicillin resistant Staphylococcus aureus ATCC 43300, read-out: CIM
[9] = ATCC29213, Methicillin sensitive Staphylococcus aureus ATCC 29213, read-out: CIM
[10] = ATCC27853, Pseudomona aeruginosa ATCC 27853, read-out: CIM
[11] = Enterococcus faecalis, ATCC29212, read-out: CIM
[12] = Staphylococcus aureus, ATCC43300, read-out: CIM
[13] = Staphylococcus aureus, ATCC29213, read-out: CIM

CCc1nc2c(c3c1C(=O)C(Sc1ccccc1OC)=CC3=O)c(=O)n(C)c(=O)n2C [Molecule 4, 6-ethyl-8-(2-methoxyphenylthio)-2,4-dimethyl pyrimido[4,5-c]isoquinoline-1,3,7,10(2H,4H)-tetraone]
MIC [1, 6]: 4 µg/mL (≈ 9.14 µM) | MIC [2, 7]: ≥ 32 µg/mL | MIC [3, 8]: 2 µg/mL (≈ 4.57 µM) | MIC [4, 9]: 4 µg/mL (≈ 9.14 µM) | MIC [5, 10]: ≥ 32 µg/mL

CCc1nc2c(c3c1C(=O)C(Sc1cccc(Br)c1)=CC3=O)c(=O)n(C)c(=O)n2C [Molecule 12, 8-(3-bromothiophenyl)-6-ethyl-2,4-dimethylpyrimido[4,5-c]isoquinoline-1,3,7,10(2, 4H)-tetraone]
MIC [1, 6]: 4 µg/mL (≈ 8.22 µM) | MIC [2, 7]: ≥ 32 µg/mL | MIC [3, 8]: 2 µg/mL (≈ 4.11 µM) | MIC [4, 9]: 32 µg/mL (≈ 65.8 µM) | MIC [5, 10]: ≥ 32 µg/mL | melting point: 138.3 to 139.3 °C

CCc1nc2c(c3c1C(=O)C(Sc1cccc(OC)c1)=CC3=O)c(=O)n(C)c(=O)n2C [Molecule 9, 6-ethyl-8-(3-methoxythiophenyl)-2,4-dimethylpyrimido[4,5-c]isoquinoline-1,3,7,10(2H,4H)-tetraone]
MIC [1, 6]: 4 µg/mL (≈ 9.14 µM) | MIC [2, 7]: ≥ 32 µg/mL | MIC [3, 8]: 4 µg/mL (≈ 9.14 µM) | MIC [4, 9]: 8 µg/mL (≈ 18.3 µM) | MIC [5, 10]: ≥ 32 µg/mL | melting point: 179.5 to 180.5 °C

CCc1nc2c(c3c1C(=O)C(Sc1cccc(Cl)c1)=CC3=O)c(=O)n(C)c(=O)n2C [Molecule 11, 8-(3-chlorothiophenyl)-6-ethyl-2,4-dimethylpyrimido[4,5-c]isoquinoline-1,3,7,10(2H,4H)-tetraone]
MIC [1, 6]: 4 µg/mL (≈ 9.05 µM) | MIC [2, 7]: ≥ 32 µg/mL | MIC [3, 8]: 2 µg/mL (≈ 4.53 µM) | MIC [4, 9]: 32 µg/mL (≈ 72.4 µM) | MIC [5, 10]: ≥ 32 µg/mL | melting point: 156.1 to 157.1 °C

CCc1nc2c(c3c1C(=O)C(Sc1cccc(C)c1)=CC3=O)c(=O)n(C)c(=O)n2C [Molecule 8, 6-ethyl-2,4-dimethyl-8-(m-tolylthio)pyrimido[4,5c]isoquinoline-1,3,7,10(2H,4H)-tetraone]
MIC [1, 6]: 4 µg/mL (≈ 9.49 µM) | MIC [2, 7]: ≥ 32 µg/mL | MIC [3, 8]: 4 µg/mL (≈ 9.49 µM) | MIC [4, 9]: 4 µg/mL (≈ 9.49 µM) | MIC [5, 10]: ≥ 32 µg/mL | melting point: 162 to 163 °C

CCc1nc2c(c3c1C(=O)C(Sc1ccccc1C)=CC3=O)c(=O)n(C)c(=O)n2C [Molecule 3, 6-ethyl-2,4-dimethyl-8-(o-tolylthio)pyrimido[4,5-c]isoquinoline-1,3,7,10(2H,4H)-tetraone]
MIC [1, 6]: ≥ 32 µg/mL | MIC [2, 7]: ≥ 32 µg/mL | MIC [3, 8]: 32 µg/mL (≈ 75.9 µM) | MIC [4, 9]: 32 µg/mL (≈ 75.9 µM) | MIC [5, 10]: ≥ 32 µg/mL | melting point: 206 to 210.9 °C

CCc1nc2c(c3c1C(=O)C(Sc1ccc(Br)cc1)=CC3=O)c(=O)n(C)c(=O)n2C [Molecule 17, 8-(4-bromothiophenyl)-6-ethyl-2,4-dimethylpyrimido[4,5-c]isoquinoline-1,3,7,10(2H,4H)-tetraone]
MIC [1, 6]: 8 µg/mL (≈ 16.4 µM) | MIC [2, 7]: ≥ 32 µg/mL | MIC [3, 8]: 4 µg/mL (≈ 8.22 µM) | MIC [4, 9]: 8 µg/mL (≈ 16.4 µM) | MIC [5, 10]: ≥ 32 µg/mL | melting point: 197.9 to 198.7 °C

CCc1nc2c(c3c1C(=O)C(Sc1ccc(OC)cc1)=CC3=O)c(=O)n(C)c(=O)n2C [Molecule 14, 6-ethyl-8-(4-methoxythiophenyl)-2,4-dimethylpyrimido[4,5-c]isoquinoline-1,3,7,10(2H,4H)-tetraone]
MIC [1, 6]: 16 µg/mL (≈ 36.6 µM) | MIC [2, 7]: ≥ 32 µg/mL | MIC [3, 8]: 16 µg/mL (≈ 36.6 µM) | MIC [4, 9]: 16 µg/mL (≈ 36.6 µM) | MIC [5, 10]: ≥ 32 µg/mL | melting point: 198.9 to 201.5 °C

CCc1nc2c(c3c1C(=O)C(Sc1ccc(Cl)cc1)=CC3=O)c(=O)n(C)c(=O)n2C [Molecule 16, 8-(4-chlorothiophenyl)-6-ethyl-2,4-dimethylpyrimido[4,5-c]isoquinoline-1,3,7,10(2H, 4H)-tetraone]
MIC [1, 11]: 4 µg/mL (≈ 9.05 µM) | MIC ([2]; ATCC25922, read-out: CIM): ≥ 32 µg/mL | MIC [3, 12]: 4 µg/mL (≈ 9.05 µM) | MIC [4, 13]: 4 µg/mL (≈ 9.05 µM) | MIC ([5]; ATCC27853, read-out: CIM): ≥ 32 µg/mL | melting point: 196.5 to 198.3 °C

CCc1nc2c(c3c1C(=O)C(Sc1ccc(F)cc1)=CC3=O)c(=O)n(C)c(=O)n2C [Molecule 15, 6-ethyl-8-(4-fluorothiophenyl)-2,4-dimethylpyrimido[4,5-c]isoquinoline-1,3,7,10(2H, 4H)-tetraone]
MIC [1, 6]: 8 µg/mL (≈ 18.8 µM) | MIC [2, 7]: ≥ 32 µg/mL | MIC [3, 8]: 8 µg/mL (≈ 18.8 µM) | MIC [4, 9]: 8 µg/mL (≈ 18.8 µM) | MIC [5, 10]: ≥ 32 µg/mL | melting point: 194.9 to 195.4 °C

CCc1nc2c(c3c1C(=O)C(Sc1ccccc1Cl)=CC3=O)c(=O)n(C)c(=O)n2C [Molecule 6, 8-((2-chlorophenyl)thio)-6-ethyl-2,4-dimethyl pyrimido[4,5-c]isoquinoline-1,3,7,10(2H,4H)-tetraone]
MIC [1, 11]: ≥ 32 µg/mL | MIC ([2]; ATCC25922, read-out: CIM): ≥ 32 µg/mL | MIC [3, 12]: ≥ 32 µg/mL | MIC [4, 13]: ≥ 32 µg/mL | MIC ([5]; ATCC27853, read-out: CIM): ≥ 32 µg/mL

CCc1nc2c(c3c1C(=O)C(Sc1ccccc1Br)=CC3=O)c(=O)n(C)c(=O)n2C [Molecule 7, 8-((2-bromophenyl)thio)-6-ethyl-2,4-dimethylpyrimido[4,5-c]isoquinoline-1,3,7,10(2H,4H)-tetraone]
MIC [1, 6]: 2 µg/mL (≈ 4.11 µM) | MIC [2, 7]: ≥ 32 µg/mL | MIC [3, 8]: 1 µg/mL (≈ 2.06 µM) | MIC [4, 9]: 4 µg/mL (≈ 8.22 µM) | MIC [5, 10]: ≥ 32 µg/mL

CCc1nc2c(c3c1C(=O)C=CC3=O)c(=O)n(C)c(=O)n2C [Molecule 1, 6-ethyl-2,4-dimethylpyrimido[4,5-c]isoquinoline-1,3,7,10(2H,4H)-tetraone]
MIC [1, 6]: > 32 µg/mL | MIC [2, 7]: > 32 µg/mL | MIC [3, 8]: ≥ 32 µg/mL | MIC [4, 9]: ≥ 32 µg/mL | MIC [5, 10]: > 32 µg/mL | melting point: 167.6 to 167.9 °C

CCc1nc2c(c3c1C(=O)C(Sc1ccccc1F)=CC3=O)c(=O)n(C)c(=O)n2C [Molecule 5, 6-ethyl-8-((2-fluorophenyl)thio)-2,4-dimethyl pyrimido[4,5-c]isoquinoline-1,3,7,10(2H, 4H)-tetraone]
MIC [1, 6]: ≥ 32 µg/mL | MIC [2, 7]: ≥ 32 µg/mL | MIC [3, 8]: ≥ 32 µg/mL | MIC [4, 9]: ≥ 32 µg/mL | MIC [5, 10]: ≥ 32 µg/mL

CCc1nc2c(c3c1C(=O)C(Sc1cccc(F)c1)=CC3=O)c(=O)n(C)c(=O)n2C [Molecule 10, 6-ethyl-8-(3-fluorothiophenyl)-2,4-dimethylpyrimido[4,5-c]isoquinoline-1,3,7,10(2H,4H)-tetraone]
MIC [1, 6]: 8 µg/mL (≈ 18.8 µM) | MIC [2, 7]: ≥ 32 µg/mL | MIC [3, 8]: 4 µg/mL (≈ 9.4 µM) | MIC [4, 9]: 4 µg/mL (≈ 9.4 µM) | MIC [5, 10]: ≥ 32 µg/mL | melting point: 170 to 171 °C

CCc1nc2c(c3c1C(=O)C(Sc1ccccc1)=CC3=O)c(=O)n(C)c(=O)n2C [Molecule 2, 6-ethyl-2,4-dimethyl-8-(phenythio)pyrimido[4,5-c]isoquinoline-1,3,7,10(2H,4H)-tetraone]
MIC [1, 11]: 8 µg/mL (≈ 19.6 µM) | MIC ([2]; ATCC25922, read-out: CIM): ≥ 32 µg/mL | MIC [3, 12]: 8 µg/mL (≈ 19.6 µM) | MIC [4, 13]: 8 µg/mL (≈ 19.6 µM) | MIC ([5]; ATCC27853, read-out: CIM): ≥ 32 µg/mL | melting point: 179.4 to 180 °C

CCc1nc2c(c3c1C(=O)C(Sc1ccc(C)cc1)=CC3=O)c(=O)n(C)c(=O)n2C [Molecule 13, 6-ethyl-2,4-dimethyl-8-(p-tolylthio)pyrimido[4,5-c]isoquinoline-1,3,7,10(2H,4H)-tetraone]
MIC [1, 6]: 16 µg/mL (≈ 38 µM) | MIC [2, 7]: ≥ 32 µg/mL | MIC [3, 8]: 4 µg/mL (≈ 9.49 µM) | MIC [4, 9]: 4 µg/mL (≈ 9.49 µM) | MIC [5, 10]: ≥ 32 µg/mL | melting point: 191 to 192.3 °C
